# Reference: article PMC6372602, “On-target and off-target effects of novel orthosteric and allosteric activators of GPR84” (Scientific Reports, 2019)
# How the values were obtained:
# human GPR35a = target: T1, human GPR35a (Homo sapiens, UniProt Q9HC97); experiment: β-arrestin-2 recruitment BRET, HEK293 cells; type: cell-based; details: agonist mode
# T1 construct: gene GPR35; C-terminal eYFP tag, HEK293 cells co-transfected with luciferase-tagged β-arrestin-2
# mouse GPR84-Gαi2 [1] = target: T2, mouse GPR84-Gαi2 (Mus musculus, UniProt Q8CIM5); experiment: […]GTPγS binding, membranes; type: biochemical; details: […] °C, pH […] GDP
# T2 construct: N-terminal FLAG-tagged mouse GPR84 fused to Gαi2 (transducer / reporter; silent C636T in Gαi2); doxycycline-inducible Flp-In T-REx 293 cells; membranes
# [2] = target: T3, mouse GPR84 (RAW264.7 cells) (Mus musculus, UniProt Q8CIM5); experiment: […]GTPγS binding, membranes; type: biochemical; details: agonist, LPS-treated cells, […] °C, pH […] GDP
# mouse GPR35 = target: T4, mouse GPR35 (Mus musculus, UniProt Q9ES90); experiment: β-arrestin-2 recruitment BRET, HEK293 cells; type: cell-based; details: agonist mode
# T4 construct: C-terminal eYFP tag, HEK293 cells co-transfected with luciferase-tagged β-arrestin-2
# human GPR84-Gαi2 [3] = target: T5, human GPR84-Gαi2 (Homo sapiens, UniProt Q9NQS5); experiment: […]GTPγS binding, membranes; type: biochemical; details: partial agonist, allosteric; […] °C, pH […] GDP
# T5 construct: doxycycline-inducible Flp-In T-REx 293 cells; membranes
# mouse GPR84-Gαi2 [4] = target: T2, mouse GPR84-Gαi2; experiment: inhibition of agonist-stimulated […]GTPγS binding, membranes; type: biochemical; details: antagonist; versus EC80 2-HTP
# [5] = target: T3, mouse GPR84 (RAW264.7 cells); experiment: as above; type: biochemical; details: antagonist; LPS-treated cells; versus EC80 2-HTP
# GPR84 (THP-1 cells) [6] = target: T6, GPR84 (THP-1 cells) (Homo sapiens, UniProt Q9NQS5); experiment: as above; type: biochemical; details: antagonist, non-competitive; LPS-treated cells; versus EC80 2-HTP
# T6 construct: endogenous receptor in membranes of LPS-treated THP-1 monocytes
# human GPR84-Gαi2 [7] = target: T5, human GPR84-Gαi2; experiment: as above; type: biochemical; details: antagonist, non-competitive; versus EC80 2-HTP
# GPR84 (THP-1 cells) [8] = target: T6, GPR84 (THP-1 cells); experiment: saturation radioligand binding, membranes; details: labelled compound; antagonist; LPS-treated cells; […] °C, pH […]
# T3 sequence (Q8CIM5 whole entry): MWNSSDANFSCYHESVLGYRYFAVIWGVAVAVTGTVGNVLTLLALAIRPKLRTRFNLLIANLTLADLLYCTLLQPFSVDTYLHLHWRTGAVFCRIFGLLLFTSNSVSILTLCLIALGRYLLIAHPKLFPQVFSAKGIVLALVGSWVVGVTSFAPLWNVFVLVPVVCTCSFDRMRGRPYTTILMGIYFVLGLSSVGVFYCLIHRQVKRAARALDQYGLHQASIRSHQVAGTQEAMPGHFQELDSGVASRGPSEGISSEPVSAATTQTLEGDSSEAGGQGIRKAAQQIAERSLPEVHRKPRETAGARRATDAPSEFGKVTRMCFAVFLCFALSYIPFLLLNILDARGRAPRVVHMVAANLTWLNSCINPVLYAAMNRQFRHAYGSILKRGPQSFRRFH
# T4 sequence (Q9ES90 whole entry): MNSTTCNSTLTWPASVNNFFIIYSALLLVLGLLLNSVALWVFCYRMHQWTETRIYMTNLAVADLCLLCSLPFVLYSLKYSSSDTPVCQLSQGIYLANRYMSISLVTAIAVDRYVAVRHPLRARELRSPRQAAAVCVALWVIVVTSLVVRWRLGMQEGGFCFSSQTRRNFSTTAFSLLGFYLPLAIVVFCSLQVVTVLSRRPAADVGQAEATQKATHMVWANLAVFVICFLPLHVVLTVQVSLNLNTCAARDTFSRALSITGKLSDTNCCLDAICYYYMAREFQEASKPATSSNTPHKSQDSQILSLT
# T6 sequence (Q9NQS5 whole entry): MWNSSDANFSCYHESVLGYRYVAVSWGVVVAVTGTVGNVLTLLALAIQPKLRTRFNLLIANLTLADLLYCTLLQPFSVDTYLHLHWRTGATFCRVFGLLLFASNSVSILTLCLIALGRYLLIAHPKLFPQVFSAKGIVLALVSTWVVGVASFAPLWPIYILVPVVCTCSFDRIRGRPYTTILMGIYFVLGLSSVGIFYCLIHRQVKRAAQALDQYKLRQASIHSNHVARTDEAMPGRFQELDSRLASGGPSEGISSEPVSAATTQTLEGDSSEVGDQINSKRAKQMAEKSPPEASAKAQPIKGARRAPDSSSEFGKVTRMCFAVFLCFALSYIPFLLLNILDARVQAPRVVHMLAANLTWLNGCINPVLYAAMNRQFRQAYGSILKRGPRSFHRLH
# T5 sequence (Q9NQS5 whole entry): as above
# T1 sequence (Q9HC97 whole entry): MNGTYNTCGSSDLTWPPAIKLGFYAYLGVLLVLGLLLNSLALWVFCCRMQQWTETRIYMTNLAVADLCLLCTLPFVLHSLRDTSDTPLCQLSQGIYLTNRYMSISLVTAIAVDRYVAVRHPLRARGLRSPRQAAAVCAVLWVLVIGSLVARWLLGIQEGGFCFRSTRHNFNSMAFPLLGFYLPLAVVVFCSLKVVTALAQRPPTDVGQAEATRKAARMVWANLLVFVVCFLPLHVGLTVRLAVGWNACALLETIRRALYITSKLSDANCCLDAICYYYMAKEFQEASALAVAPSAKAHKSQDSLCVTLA
molecule,measurement,setting,value
"CCCCCCSc1nc(O)cc(O)n1 [2-HTP, 2-(hexylthiol)pyrimidine-4,6 diol]","β-arrestin-2 recruitment BRET, HEK293 cells",human GPR35a,2-HTP was also unable to activate human GPR35
same,pEC50,mouse GPR84-Gαi2 [1]; agonist,7.52 ± 0.11
same,pEC50,[2],7.58 ± 0.08
same,"β-arrestin-2 recruitment BRET, HEK293 cells",mouse GPR35,neither PSB-16671 nor 2-HTP was able to activate mouse GPR35
c1ccc2c(Cc3c[nH]c4ccccc34)c[nH]c2c1 [DIM],pEC50,"mouse GPR84-Gαi2 [1]; partial agonist, allosteric",5.37 ± 0.08
same,EC50,human GPR84-Gαi2 [3],Equivalent studies using DIM confirmed the higher potency of PSB-16671
"Fc1cc(F)c2[nH]cc(Cc3c[nH]c4c(F)cc(F)cc34)c2c1 [PSB-16671, di(5,7-difluoro-1H-indole-3-yl)methane]",pEC50,"mouse GPR84-Gαi2 [1]; agonist, allosteric",6.53 ± 0.07
same,pEC50,[2]; allosteric,6.75 ± 0.10
same,"β-arrestin-2 recruitment BRET, HEK293 cells",mouse GPR35,neither PSB-16671 nor 2-HTP was able to activate mouse GPR35
"O=c1nc(OCC2COCCO2)cc2n1CCc1cc(C#CCNc3ccccc3)ccc1-2 (centres unmarked) [compound 107, 2-([1,4]dioxan-2-ylmethoxy)-9-(3-phenylamino-prop-1-ynyl)-6,7-dihydro-pyrimido[6,1-a]isoquinolin-4-one]",pIC50,mouse GPR84-Gαi2 [4],6.90 ± 0.05
same,pIC50,[5],6.50 ± 0.06
same,pIC50,GPR84 (THP-1 cells) [6],7.86 ± 0.02
same,pIC50,human GPR84-Gαi2 [7],8.14 ± 0.06
[^3H]9543,Kd,GPR84 (THP-1 cells) [8],0.18 ± 0.02 nM
